{"source": "patent US8192962B2", "about": "“Processes for detecting toxic substances” (Daikin Industries, Ltd., priority 2001, dated 2012)", "system": "Genes belonging to other category", "assay": "DNA chip mRNA expression in yeast, genes belonging to other category (Table 9)", "assay_type": "cell-based, Saccharomyces cerevisiae S288C", "protocol": "Yeast (Saccharomyces cerevisiae S288C (α SUC2mal mel gap2 CUP1)) were incubated at 25° C. on YPD medium (yeast extract 1%, polypepton 2%, glucose 2%). One of toxic chemical substances was added to the cells at logarithmic growth phase, and the cells were further incubated for two hours. Cells were cultured without any chemical substance in the same condition, and were used as control. Concentrations of the chemical substances were defined to inhibit the growth of the yeast but not lead to death.\nAfter completion of the incubation, the culture was centrifuged to collect the cells. To the cells, sodium acetate buffer (50 mM sodium acetate, 10 mM EDTA, 1% SDS) was added, and the mixture was shaken at 65° C. for five minutes, followed by returning to room temperature, and obtaining the supernatant, of which the procedures were repeated two times. To the supernatant, ½ amount of a solution of phenol/chloroform was added, and the mixture was centrifuged to give a supernatant, which was added with an equal amount of chloroform, and the mixture was centrifuged to give a supernatant. To the supernatant, an equal amount of isopropanol containing 0.3 M sodium acetate was added, and the mixture was allowed to stand at room temperature for 30 minutes, after which the mixture was centrifuged to give a sediment of the whole RNAs. Seventy % ethanol was added to the sediment, and the mixture was again centrifuged to give a sediment, which was then dried and dissolved in water. mRNA was isolated from the whole RNAs as followings. In view of the fact that a poly A chain is attached to the 3′ terminus of mRNA, a polynucleotide having a poly T structure which was immobilized on the surface of latex beads was used to trap the mRNA, and then the mRNA was washed and eluted with spine column (Oligotex-dT30<Super>mRNA Purification Kit, Takara). Reverse transcription of the mRNA was conducted with a reverse transcriptase (Super Script II Reverse Transcriptase; catalogue No. 18064-014, GibcoBRL) using fluorescence-labeled nucleotides to give cDNAs that were introduced with Cy3-dUTP or Cy5-dUTP during the reverse transcription.\nThe labeled cDNAs were dissolved in TE buffer (10mM Tris-HCl/1 mM EDTA, pH8.0), and the solution was dropped on the DNA chip containing the whole genes of yeast (DNA Chip Research Inc. Japan) so that the cDNAs were hybridized on the DNA chip at 65° C. for over 12 hours. The fluoresces intensity of the DNA chip was read with a scanner, and the ratio relative to the fluorescence intensity resulting from the absence of chemical substance was estimated as the following, which is shown in Tables 1 to 9: […]", "data": [{"smiles": "Cl[C@H]1[C@H](Cl)[C@@H](Cl)[C@@H](Cl)[C@H](Cl)[C@H]1Cl", "note": "[(7), γ-hexachlorocyclohexane]", "values": [{"measurement": "The level of expressed mRNA in the presence of chemical substance/The level of expressed mRNA in the absence of chemical substance", "setting": "yeast gene YAR010C", "value": 1.9}, {"measurement": "The level of expressed mRNA in the presence of chemical substance/The level of expressed mRNA in the absence of chemical substance", "setting": "yeast gene YBL005W-A", "value": 1.4}, {"measurement": "The level of expressed mRNA in the presence of chemical substance/The level of expressed mRNA in the absence of chemical substance", "setting": "yeast gene YBL041W", "value": 1.6}, {"measurement": "The level of expressed mRNA in the presence of chemical substance/The level of expressed mRNA in the absence of chemical substance", "setting": "yeast gene YBL043W", "value": 1.5}, {"measurement": "The level of expressed mRNA in the presence of chemical substance/The level of expressed mRNA in the absence of chemical substance", "setting": "yeast gene YBL078C", "value": 3.1}, {"measurement": "The level of expressed mRNA in the presence of chemical substance/The level of expressed mRNA in the absence of chemical substance", "setting": "yeast gene YBR214W", "value": 1.1}, {"measurement": "The level of expressed mRNA in the presence of chemical substance/The level of expressed mRNA in the absence of chemical substance", "setting": "yeast gene YCL020W", "value": 1.5}, {"measurement": "The level of expressed mRNA in the presence of chemical substance/The level of expressed mRNA in the absence of chemical substance", "setting": "yeast gene YCL027W", "value": 1.0}, {"measurement": "The level of expressed mRNA in the presence of chemical substance/The level of expressed mRNA in the absence of chemical substance", "setting": "yeast gene YCR004C", "value": 1.4}, {"measurement": "The level of expressed mRNA in the presence of chemical substance/The level of expressed mRNA in the absence of chemical substance", "setting": "yeast gene YCR071C", "value": 1.4}, {"measurement": "The level of expressed mRNA in the presence of chemical substance/The level of expressed mRNA in the absence of chemical substance", "setting": "yeast gene YCR088W", "value": 1.2}, {"measurement": "The level of expressed mRNA in the presence of chemical substance/The level of expressed mRNA in the absence of chemical substance", "setting": "yeast gene YDL008W", "value": 2.0}, {"measurement": "The level of expressed mRNA in the presence of chemical substance/The level of expressed mRNA in the absence of chemical substance", "setting": "yeast gene YDL238C", "value": 1.4}, {"measurement": "The level of expressed mRNA in the presence of chemical substance/The level of expressed mRNA in the absence of chemical substance", "setting": "yeast gene YDR055W", "value": 1.5}, {"measurement": "The level of expressed mRNA in the presence of chemical substance/The level of expressed mRNA in the absence of chemical substance", "setting": "yeast gene YDR084C", "value": 0.9}, {"measurement": "The level of expressed mRNA in the presence of chemical substance/The level of expressed mRNA in the absence of chemical substance", "setting": "yeast gene YDR085C", "value": 4.1}, {"measurement": "The level of expressed mRNA in the presence of chemical substance/The level of expressed mRNA in the absence of chemical substance", "setting": "yeast gene YDR104C", "value": 1.0}, {"measurement": "The level of expressed mRNA in the presence of chemical substance/The level of expressed mRNA in the absence of chemical substance", "setting": "yeast gene YDR115W", "value": 1.6}, {"measurement": "The level of expressed mRNA in the presence of chemical substance/The level of expressed mRNA in the absence of chemical substance", "setting": "yeast gene YDR259C", "value": 2.8}, {"measurement": "The level of expressed mRNA in the presence of chemical substance/The level of expressed mRNA in the absence of chemical substance", "setting": "yeast gene YDR315C", "value": 1.4}, {"measurement": "The level of expressed mRNA in the presence of chemical substance/The level of expressed mRNA in the absence of chemical substance", "setting": "yeast gene YDR358W", "value": 2.8}, {"measurement": "The level of expressed mRNA in the presence of chemical substance/The level of expressed mRNA in the absence of chemical substance", "setting": "yeast gene YDR388W", "value": 1.1}, {"measurement": "The level of expressed mRNA in the presence of chemical substance/The level of expressed mRNA in the absence of chemical substance", "setting": "yeast gene YDR432W", "value": 0.5}, {"measurement": "The level of expressed mRNA in the presence of chemical substance/The level of expressed mRNA in the absence of chemical substance", "setting": "yeast gene YDR481C", "value": 0.7}, {"measurement": "The level of expressed mRNA in the presence of chemical substance/The level of expressed mRNA in the absence of chemical substance", "setting": "yeast gene YDR510W", "value": 1.6}, {"measurement": "The level of expressed mRNA in the presence of chemical substance/The level of expressed mRNA in the absence of chemical substance", "setting": "yeast gene YEL042W", "value": 0.5}, {"measurement": "The level of expressed mRNA in the presence of chemical substance/The level of expressed mRNA in the absence of chemical substance", "setting": "yeast gene YEL066W", "value": 1.8}, {"measurement": "The level of expressed mRNA in the presence of chemical substance/The level of expressed mRNA in the absence of chemical substance", "setting": "yeast gene YER039C", "value": 1.3}, {"measurement": "The level of expressed mRNA in the presence of chemical substance/The level of expressed mRNA in the absence of chemical substance", "setting": "yeast gene YER107C", "value": 1.0}, {"measurement": "The level of expressed mRNA in the presence of chemical substance/The level of expressed mRNA in the absence of chemical substance", "setting": "yeast gene YER130C", "value": 1.5}, {"measurement": "The level of expressed mRNA in the presence of chemical substance/The level of expressed mRNA in the absence of chemical substance", "setting": "yeast gene YFL022C", "value": 0.3}, {"measurement": "The level of expressed mRNA in the presence of chemical substance/The level of expressed mRNA in the absence of chemical substance", "setting": "yeast gene YFL028C", "value": 2.0}, {"measurement": "The level of expressed mRNA in the presence of chemical substance/The level of expressed mRNA in the absence of chemical substance", "setting": "yeast gene YFL043C", "value": 1.8}, {"measurement": "The level of expressed mRNA in the presence of chemical substance/The level of expressed mRNA in the absence of chemical substance", "setting": "yeast gene YGL158W", "value": 1.3}, {"measurement": "The level of expressed mRNA in the presence of chemical substance/The level of expressed mRNA in the absence of chemical substance", "setting": "yeast gene YGL229C", "value": 2.2}, {"measurement": "The level of expressed mRNA in the presence of chemical substance/The level of expressed mRNA in the absence of chemical substance", "setting": "yeast gene YGR136W", "value": 1.5}, {"measurement": "The level of expressed mRNA in the presence of chemical substance/The level of expressed mRNA in the absence of chemical substance", "setting": "yeast gene YGR189C", "value": 0.6}, {"measurement": "The level of expressed mRNA in the presence of chemical substance/The level of expressed mRNA in the absence of chemical substance", "setting": "yeast gene YGR213C", "value": 7.0}, {"measurement": "The level of expressed mRNA in the presence of chemical substance/The level of expressed mRNA in the absence of chemical substance", "setting": "yeast gene YGR257C", "value": 2.4}, {"measurement": "The level of expressed mRNA in the presence of chemical substance/The level of expressed mRNA in the absence of chemical substance", "setting": "yeast gene YHR004C", "value": 1.5}, {"measurement": "The level of expressed mRNA in the presence of chemical substance/The level of expressed mRNA in the absence of chemical substance", "setting": "yeast gene YHR071W", "value": 1.0}, {"measurement": "The level of expressed mRNA in the presence of chemical substance/The level of expressed mRNA in the absence of chemical substance", "setting": "yeast gene YHR139C", "value": 1.5}, {"measurement": "The level of expressed mRNA in the presence of chemical substance/The level of expressed mRNA in the absence of chemical substance", "setting": "yeast gene YHR142W", "value": 0.9}, {"measurement": "The level of expressed mRNA in the presence of chemical substance/The level of expressed mRNA in the absence of chemical substance", "setting": "yeast gene YIL123W", "value": 0.5}, {"measurement": "The level of expressed mRNA in the presence of chemical substance/The level of expressed mRNA in the absence of chemical substance", "setting": "yeast gene YIL140W", "value": 0.5}, {"measurement": "The level of expressed mRNA in the presence of chemical substance/The level of expressed mRNA in the absence of chemical substance", "setting": "yeast gene YJL089W", "value": 1.1}, {"measurement": "The level of expressed mRNA in the presence of chemical substance/The level of expressed mRNA in the absence of chemical substance", "setting": "yeast gene YJL116C", "value": 0.8}, {"measurement": "The level of expressed mRNA in the presence of chemical substance/The level of expressed mRNA in the absence of chemical substance", "setting": "yeast gene YJR004C", "value": 0.4}, {"measurement": "The level of expressed mRNA in the presence of chemical substance/The level of expressed mRNA in the absence of chemical substance", "setting": "yeast gene YJR086W", "value": 1.7}, {"measurement": "The level of expressed mRNA in the presence of chemical substance/The level of expressed mRNA in the absence of chemical substance", "setting": "yeast gene YKL008C", "value": 1.4}]}]}
